In ChEMBL document CHEMBL1909046, “DrugMatrix in vitro pharmacology data”:

Assays:
[1] = target: T1, Type-2 angiotensin II receptor (Homo sapiens, UniProt P50052); assay type: cell-based; conditions: cho-k1; further: in other assays of this panel Not Active means under 50% inhibition at 10 µM
T1 sequence (P50052 whole entry): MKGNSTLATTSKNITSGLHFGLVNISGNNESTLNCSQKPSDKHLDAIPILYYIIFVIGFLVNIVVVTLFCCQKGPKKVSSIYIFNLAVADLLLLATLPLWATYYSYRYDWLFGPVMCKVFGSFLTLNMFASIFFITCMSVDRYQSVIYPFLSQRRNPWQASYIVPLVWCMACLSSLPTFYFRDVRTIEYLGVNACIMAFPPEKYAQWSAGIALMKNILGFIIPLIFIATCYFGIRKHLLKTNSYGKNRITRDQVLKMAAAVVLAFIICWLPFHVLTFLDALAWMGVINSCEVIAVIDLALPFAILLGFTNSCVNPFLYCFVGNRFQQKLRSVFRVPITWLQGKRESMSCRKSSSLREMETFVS

[2] = target: Kappa-type opioid receptor (Homo sapiens, UniProt P41145); test: DRUGMATRIX: Opiate kappa (OP2, KOP) radioligand binding (ligand: [3H] Diprenorphine); assay type: cell membranes, HEK293, Membrane; conditions: hek293; Not Active = under 50% inhibition at 10 µM
[3] = target: T2, Nitric oxide synthase, inducible (Mus musculus, UniProt P29477); set-up: species or system Escherichia coli;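 further: inhibition of iNOS enzyme activity measured with L-arginine as substrate; in other assays of this panel Not Active means under 50% inhibition at 10 µM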
T2 sequence (P29477 whole entry): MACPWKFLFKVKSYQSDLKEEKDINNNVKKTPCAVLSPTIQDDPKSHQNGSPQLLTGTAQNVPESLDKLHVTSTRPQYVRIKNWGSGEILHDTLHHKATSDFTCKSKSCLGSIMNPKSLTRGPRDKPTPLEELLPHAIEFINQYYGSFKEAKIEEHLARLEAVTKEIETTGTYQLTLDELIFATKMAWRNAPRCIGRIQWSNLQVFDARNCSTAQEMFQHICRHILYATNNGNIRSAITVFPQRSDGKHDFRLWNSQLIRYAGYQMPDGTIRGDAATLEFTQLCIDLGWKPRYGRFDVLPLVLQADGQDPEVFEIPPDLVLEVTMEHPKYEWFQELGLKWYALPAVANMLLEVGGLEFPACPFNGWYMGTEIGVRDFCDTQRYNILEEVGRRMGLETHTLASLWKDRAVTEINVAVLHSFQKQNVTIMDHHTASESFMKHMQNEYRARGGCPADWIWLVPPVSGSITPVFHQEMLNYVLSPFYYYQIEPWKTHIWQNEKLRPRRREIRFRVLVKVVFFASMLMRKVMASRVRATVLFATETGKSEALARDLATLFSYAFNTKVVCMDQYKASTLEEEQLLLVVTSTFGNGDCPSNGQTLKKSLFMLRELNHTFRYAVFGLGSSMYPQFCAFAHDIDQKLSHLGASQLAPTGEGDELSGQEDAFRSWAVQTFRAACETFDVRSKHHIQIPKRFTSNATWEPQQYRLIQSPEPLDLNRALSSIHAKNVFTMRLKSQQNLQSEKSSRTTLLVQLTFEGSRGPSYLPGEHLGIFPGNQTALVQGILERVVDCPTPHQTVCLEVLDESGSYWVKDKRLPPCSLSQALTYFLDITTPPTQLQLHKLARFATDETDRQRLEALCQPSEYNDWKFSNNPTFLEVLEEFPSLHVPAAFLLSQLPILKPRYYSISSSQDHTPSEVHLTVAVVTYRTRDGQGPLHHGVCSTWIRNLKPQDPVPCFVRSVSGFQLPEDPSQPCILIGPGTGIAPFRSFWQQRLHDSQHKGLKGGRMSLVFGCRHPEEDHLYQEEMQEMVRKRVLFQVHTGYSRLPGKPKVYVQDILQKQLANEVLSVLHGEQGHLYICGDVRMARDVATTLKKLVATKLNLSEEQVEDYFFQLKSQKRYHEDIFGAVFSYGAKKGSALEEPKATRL

[4] = DRUGMATRIX: Glutamate, NMDA, Agonism radioligand binding (ligand: [3H] CGP-39653); assay type: cell membranes, Rattus norvegicus, Wistar, Cerebral cortex, Membrane; conditions: Not Active = under 50% inhibition at 10 µM
[5] = target: T3, Caspase-1 (Homo sapiens, UniProt P29466); set-up: species or system Escherichia coli;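 further: Caspase-1 enzyme inhibition assay with a peptide substrate; in other assays of this panel Not Active means under 50% inhibition at 10 µM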
T3 sequence (P29466 whole entry): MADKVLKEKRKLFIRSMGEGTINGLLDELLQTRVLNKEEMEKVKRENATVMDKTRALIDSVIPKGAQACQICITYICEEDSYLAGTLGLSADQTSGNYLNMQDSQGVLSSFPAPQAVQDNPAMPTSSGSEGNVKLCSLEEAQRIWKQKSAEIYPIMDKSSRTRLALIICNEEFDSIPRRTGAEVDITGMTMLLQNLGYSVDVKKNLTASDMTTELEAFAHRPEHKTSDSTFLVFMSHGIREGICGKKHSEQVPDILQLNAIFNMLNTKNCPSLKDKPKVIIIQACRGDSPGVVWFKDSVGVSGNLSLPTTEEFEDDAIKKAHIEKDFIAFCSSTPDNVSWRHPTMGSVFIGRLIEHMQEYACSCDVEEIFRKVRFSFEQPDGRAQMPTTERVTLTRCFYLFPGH

[6] = DRUGMATRIX: Phorbol Ester radioligand binding (ligand: [3H] PDBu); assay type: cell membranes, Mus musculus, ICR, Brain, Membrane; conditions: Not Active = under 50% inhibition at 10 µM
[7] = target: Cytochrome P450 2C9 (Homo sapiens, UniProt P11712); conditions: bti-tn-5b1-4; further: in other assays of this panel Not Active means under 50% inhibition at 10 µM
[8] = DRUGMATRIX: Phosphodiesterase PDE3 enzyme inhibition (substrate: [3H]cAMP + cAMP); assay type: tissue-based, Homo sapiens; conditions: platelet; Not Active = under 50% inhibition at 10 µM
[9] = target: T4, Alpha-1D adrenergic receptor (Homo sapiens, UniProt P25100); assay type: cell membranes, HEK293, Membrane; conditions: hek293; further: in other assays of this panel Not Active means under 50% inhibition at 10 µM
T4 sequence (P25100 whole entry): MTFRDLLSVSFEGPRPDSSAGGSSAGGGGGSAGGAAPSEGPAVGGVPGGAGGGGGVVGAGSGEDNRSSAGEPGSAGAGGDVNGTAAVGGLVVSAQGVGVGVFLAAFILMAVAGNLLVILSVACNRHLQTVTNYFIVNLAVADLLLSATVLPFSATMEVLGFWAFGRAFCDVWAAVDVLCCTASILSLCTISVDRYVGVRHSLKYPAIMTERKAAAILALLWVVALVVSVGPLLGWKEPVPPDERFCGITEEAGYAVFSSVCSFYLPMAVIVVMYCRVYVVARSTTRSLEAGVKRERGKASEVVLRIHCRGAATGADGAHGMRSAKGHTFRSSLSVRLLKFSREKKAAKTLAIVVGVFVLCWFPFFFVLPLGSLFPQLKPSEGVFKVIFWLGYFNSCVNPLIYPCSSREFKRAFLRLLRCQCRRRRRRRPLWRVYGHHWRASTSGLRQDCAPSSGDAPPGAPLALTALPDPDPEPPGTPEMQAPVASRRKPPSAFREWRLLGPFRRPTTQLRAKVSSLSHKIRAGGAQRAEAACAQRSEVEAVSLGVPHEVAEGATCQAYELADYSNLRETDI

Kappa-type opioid receptor, sequence (P41145 whole entry): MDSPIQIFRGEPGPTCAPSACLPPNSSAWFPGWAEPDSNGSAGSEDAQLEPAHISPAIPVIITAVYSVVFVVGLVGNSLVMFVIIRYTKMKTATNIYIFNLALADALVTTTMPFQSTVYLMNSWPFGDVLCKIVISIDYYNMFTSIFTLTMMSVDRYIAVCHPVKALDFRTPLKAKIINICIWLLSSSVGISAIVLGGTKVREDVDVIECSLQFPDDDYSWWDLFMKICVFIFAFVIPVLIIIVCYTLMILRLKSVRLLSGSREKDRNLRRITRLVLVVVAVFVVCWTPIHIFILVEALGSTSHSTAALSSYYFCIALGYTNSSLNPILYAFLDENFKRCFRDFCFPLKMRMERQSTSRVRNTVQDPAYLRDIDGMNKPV
Cytochrome P450 2C9, sequence (P11712 whole entry): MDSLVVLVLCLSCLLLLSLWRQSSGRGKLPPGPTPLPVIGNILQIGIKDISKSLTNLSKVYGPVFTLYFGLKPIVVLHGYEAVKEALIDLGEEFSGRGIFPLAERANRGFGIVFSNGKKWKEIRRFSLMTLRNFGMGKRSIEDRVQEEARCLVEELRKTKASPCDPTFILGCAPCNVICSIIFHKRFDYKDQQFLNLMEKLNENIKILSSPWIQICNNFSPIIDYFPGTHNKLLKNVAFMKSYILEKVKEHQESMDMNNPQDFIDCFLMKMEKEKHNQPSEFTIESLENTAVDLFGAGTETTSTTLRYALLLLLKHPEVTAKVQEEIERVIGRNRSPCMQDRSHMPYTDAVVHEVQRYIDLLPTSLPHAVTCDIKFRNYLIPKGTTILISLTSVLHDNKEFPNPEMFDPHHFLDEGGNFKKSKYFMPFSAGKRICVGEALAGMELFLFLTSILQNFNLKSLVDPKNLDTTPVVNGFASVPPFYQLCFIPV

c1ccc2c(c1)c1cccc3ccc4cccc2c4c31 [BENZO[E]PYRENE]
Not Active: IC50 [1] | IC50 [2] | IC50 [3] | IC50 [4] | Ki [4] | IC50 [5] | IC50 [6] | Ki [6] | IC50 [7] | Ki [7] | IC50 [8] | Ki [8] | IC50 [9]

Sc1ncnc2nc[nH]c12 [MERCAPTOPURINE ANHYDROUS]
Not Active: IC50 [1] | IC50 [2] | IC50 [3] | IC50 [4] | Ki [4] | IC50 [5] | IC50 [6] | Ki [6] | IC50 [7] | Ki [7] | IC50 [8] | Ki [8] | IC50 [9]

Nc1nc(N)nc(-c2cc(Cl)ccc2Cl)n1.O=C(O)/C=C\C(=O)O [IRSOGLADINE MALEATE]
Not Active: IC50 [1] | IC50 [2] | IC50 [3] | IC50 [4] | Ki [4] | IC50 [5] | IC50 [6] | Ki [6] | IC50 [7] | Ki [7] | IC50 [8] | Ki [8] | IC50 [9]

CC1(C)O[C@@H]2C[C@H]3[C@@H]4CCC5=CC(=O)CC[C@]5(C)[C@@]4(F)[C@@H](O)C[C@]3(C)[C@]2(C(=O)CCl)O1 [HALCINONIDE]
Not Active: IC50 [1] | IC50 [2] | IC50 [3] | IC50 [4] | Ki [4] | IC50 [5] | IC50 [6] | Ki [6] | IC50 [7] | Ki [7] | IC50 [8] | Ki [8] | IC50 [9]

O=c1[nH]c(=O)n([C@H]2C[C@H](O)[C@@H](CO)O2)cc1I [IDOXURIDINE]
Not Active: IC50 [1] | IC50 [2] | IC50 [3] | IC50 [4] | Ki [4] | IC50 [5] | IC50 [6] | Ki [6] | IC50 [7] | Ki [7] | IC50 [8] | Ki [8] | IC50 [9]

CC(C)C(=O)Nc1ccc([N+](=O)[O-])c(C(F)(F)F)c1 [FLUTAMIDE]
Not Active: IC50 [1] | IC50 [2] | IC50 [3] | IC50 [4] | Ki [4] | IC50 [5] | IC50 [6] | Ki [6] | IC50 [7] | Ki [7] | IC50 [8] | Ki [8] | IC50 [9]

CCC1(c2ccc(N)cc2)CCC(=O)NC1=O (configuration not stated) [AMINOGLUTETHIMIDE]
Not Active: IC50 [1] | IC50 [2] | IC50 [3] | IC50 [4] | Ki [4] | IC50 [5] | IC50 [6] | Ki [6] | IC50 [7] | Ki [7] | IC50 [8] | Ki [8] | IC50 [9]

CC(NC(C)(C)C)C(=O)c1cccc(Cl)c1 (configuration not stated) [BUPROPION]
Not Active: IC50 [1] | IC50 [2] | IC50 [3] | IC50 [4] | Ki [4] | IC50 [5] | IC50 [6] | Ki [6] | IC50 [7] | Ki [7] | IC50 [8] | Ki [8] | IC50 [9]

C=C(C)C1(O)OC(=O)C=C1OC (configuration not stated) [PENICILLIC ACID]
Not Active: IC50 [1] | IC50 [2] | IC50 [3] | IC50 [4] | Ki [4] | IC50 [5] | IC50 [6] | Ki [6] | IC50 [7] | Ki [7] | IC50 [8] | Ki [8] | IC50 [9]
